Values of other authors as cited in patent US5690961A, “Acidic polysaccharides crosslinked with polycarboxylic acids and their uses” (Hercules Incorporated, priority 1994, dated 1997).

Details: in vivo

In the case of hyaluronic acid, the “half-life of hyaluronic acid injected in a joint” value is given as “about 13 hours”.
